Experimental data reported in ChEMBL document CHEMBL1153126, “Substituted tetrahydro-beta-carbolines as potential agents for the treatment of human papillomavirus infection” (Bioorg Med Chem Lett, 2010).

How the values were obtained:
[1] = tested on: Human papillomavirus type 16; experiment: Antiviral activity against Human papillomavirus - 16 infected in human W12-20850 cells by hybrid capture method; assay type: functional, organism-based; details: Human papillomavirus 16, W12-20850
[2] = Cytotoxicity against HFF cells; assay type: cell-based; details: human
[3] = Therapeutic index, CC50 for HFF cells to IC50 for Human papillomavirus - 16; assay type: cell-based; details: read-out: TI
[4] = Half life in rat at 1 mg/kg, iv; assay type: ADME, organism-based; design: dose 1 mg/kg, route intravenous; details: in vivo
[5] = Clearance in rat at 1 mg/kg, iv; assay type: ADME, organism-based; design: dose 1 mg/kg, route intravenous; details: in vivo
[6] = Oral bioavailability in mouse at 5 mg/kg; assay type: ADME, organism-based; details: in vivo

CC(C)C[C@H]1c2[nH]c3ccc(Cl)cc3c2CCN1C(=O)CCc1ccccc1
IC50 [1]: 0.018 µM | CC50 [2]: > 100 µM

CC(C)CC1c2[nH]c3ccccc3c2CCN1C(=O)CCc1ccccc1 (stereo unspecified)
IC50 [1]: 0.33 µM | CC50 [2]: 22 µM

O=C(CCc1ccccc1)N1CCc2c([nH]c3ccccc23)C1c1ccccc1 (stereo unspecified)
IC50 [1]: 1.2 µM | CC50 [2]: > 100 µM

Cc1ccc([C@@H]2c3[nH]c4ccc(Cl)cc4c3CCN2C(=O)CCc2ccccc2)cc1
IC50 [1]: 7.7 µM | CC50 [2]: > 100 µM

O=C(CCc1ccccc1)N1CCc2c([nH]c3ccccc23)C1CCc1ccccc1 (stereo unspecified)
IC50 [1]: 2.7 µM | CC50 [2]: > 100 µM

O=C(CCc1ccccc1)N1CCc2c([nH]c3ccccc23)C1CN1CCCC1 (stereo unspecified)
CC50 [2]: 16 µM

O=C(CCc1ccccc1)N1CCc2c([nH]c3ccccc23)C1COCc1ccccc1 (stereo unspecified)
IC50 [1]: 7.3 µM | CC50 [2]: > 100 µM

O=C(OCC1c2[nH]c3ccccc3c2CCN1C(=O)CCc1ccccc1)N1CCCC1 (stereo unspecified)
IC50 [1]: > 100 µM | CC50 [2]: > 100 µM

Cc1ccc(C2c3[nH]c4c(C)cccc4c3CCN2C(=O)CCc2ccccc2)cc1 (stereo unspecified)
IC50 [1]: 2.2 µM | CC50 [2]: > 100 µM | selectivity ratio [3]: > 100

Cc1ccc(C2c3[nH]c4ccccc4c3CCN2C(=O)Oc2cccc3ccccc23)cc1 (stereo unspecified)
IC50 [1]: 23 µM | CC50 [2]: > 100 µM

Cc1ccc(C2c3[nH]c4ccccc4c3CCN2S(C)(=O)=O)cc1 (stereo unspecified)
IC50 [1]: 23 µM | CC50 [2]: > 100 µM

Cc1ccc(C2c3[nH]c4ccc(F)cc4c3CCN2C(=O)CCc2ccccc2)cc1 (stereo unspecified)
IC50 [1]: 0.44 µM | CC50 [2]: > 100 µM | selectivity ratio [3]: > 100

Cc1ccc(C2c3[nH]c4ccccc4c3CCN2C(=O)CCc2ccccc2)cc1 (stereo unspecified)
IC50 [1]: 1.3 µM | CC50 [2]: > 100 µM | selectivity ratio [3]: 100

O=C(CCc1ccccc1)N1CCc2c([nH]c3ccccc23)C1COc1ccccc1 (stereo unspecified)
IC50 [1]: 72 µM | CC50 [2]: > 100 µM

Cc1ccc(C2c3[nH]c4ccccc4c3CCN2C(=O)C#Cc2ccccc2)cc1 (stereo unspecified)
IC50 [1]: 20 µM | CC50 [2]: > 100 µM

O=C(C1c2[nH]c3ccccc3c2CCN1C(=O)CCc1ccccc1)N1CCCC1 (stereo unspecified)
IC50 [1]: > 100 µM | CC50 [2]: > 100 µM

COc1ccc2[nH]c3c(c2c1)CCN(C(=O)CCc1ccccc1)C3c1ccc(C)cc1 (stereo unspecified)
IC50 [1]: 0.57 µM | CC50 [2]: > 100 µM | selectivity ratio [3]: > 100

COC(=O)N1CCc2c([nH]c3ccccc23)C1c1ccc(C)cc1 (stereo unspecified)
IC50 [1]: 1.7 µM | CC50 [2]: 31 µM

Cc1ccc(C2c3[nH]c4ccccc4c3CCN2CC(C)C)cc1 (stereo unspecified)
IC50 [1]: 25 µM | CC50 [2]: 50 µM

Cc1ccc(C2c3[nH]c4ccccc4c3CCN2C(=O)OCc2ccccc2)cc1 (stereo unspecified)
IC50 [1]: 0.9 µM | CC50 [2]: > 100 µM

Cc1ccc(C2c3[nH]c4ccccc4c3CCN2C(=O)CCN(C)C)cc1 (stereo unspecified)
IC50 [1]: 15 µM | CC50 [2]: 40 µM

COc1ccc(S(=O)(=O)N2CCc3c([nH]c4ccccc34)C2c2ccc(C)cc2)cc1 (stereo unspecified)
IC50 [1]: 66 µM | CC50 [2]: > 100 µM

Cc1ccc(C2c3[nH]c4cc(F)ccc4c3CCN2C(=O)CCc2ccccc2)cc1 (stereo unspecified)
IC50 [1]: 1.7 µM | CC50 [2]: > 100 µM | selectivity ratio [3]: > 100

O=C(CCc1ccccc1)N1CCc2c([nH]c3ccccc23)C1c1cccnc1 (stereo unspecified)
IC50 [1]: > 100 µM | CC50 [2]: > 100 µM

COC(=O)C1c2[nH]c3ccccc3c2CCN1C(=O)CCc1ccccc1 (stereo unspecified)
IC50 [1]: 20 µM | CC50 [2]: > 100 µM

Cc1ccc(C2c3[nH]c4ccccc4c3CCN2C(=O)/C=C/c2ccccc2)cc1 (stereo unspecified)
IC50 [1]: 2.3 µM | CC50 [2]: > 100 µM

Cc1ccc(C2c3[nH]c4ccc(Cl)cc4c3CCN2C(=O)CCc2ccccc2)cc1 (stereo unspecified)
IC50 [1]: 0.062 µM | CC50 [2]: > 100 µM | selectivity ratio [3]: > 100

Cc1ccc([C@H]2c3[nH]c4ccc(Cl)cc4c3CCN2C(=O)CCc2ccccc2)cc1
IC50 [1]: 0.023 µM | CC50 [2]: > 100 µM | half-life [4]: 6.2 h | clearance [5]: 3.6 mL/min/kg | bioavailability [6]: 73%

Cc1ccc(C2c3[nH]c4ccccc4c3CCN2Cc2ccccc2)cc1 (stereo unspecified)
IC50 [1]: 5.8 µM | CC50 [2]: 94 µM

Cc1ccc(C2c3[nH]c4ccccc4c3CCN2C(=O)CCc2cccnc2)cc1 (stereo unspecified)
IC50 [1]: 18 µM | CC50 [2]: 94 µM

COc1ccc2c3c([nH]c2c1)C(c1ccc(C)cc1)N(C(=O)CCc1ccccc1)CC3 (stereo unspecified)
IC50 [1]: 5.8 µM | CC50 [2]: > 100 µM | selectivity ratio [3]: > 100

Cc1ccc(C2c3[nH]c4ccc(C)cc4c3CCN2C(=O)CCc2ccccc2)cc1 (stereo unspecified)
IC50 [1]: 0.35 µM | CC50 [2]: > 100 µM | selectivity ratio [3]: > 100

CC(C)C[C@@H]1c2[nH]c3ccc(Cl)cc3c2CCN1C(=O)CCc1ccccc1
IC50 [1]: 0.88 µM | CC50 [2]: > 100 µM
